Data as given in patent US20240270771A1, “Compound containing phosphate group, pharmaceutical composition containing same, preparation method therefor and use thereof” (SHANGHAI RAISING PHARMACEUTICAL CO., LTD., priority 2021, published 2024).

How the values were obtained:
[1] = test system: sodium nitrite-induced hypoxic memory impairment model; experiment: Jumping stand test, sodium nitrite-induced hypoxic memory impairment model; type: in vivo, ICR mice; conditions: sodium nitrite 120 mg/kg s.c., compound 200 mg/kg gavage once a day 3 weeks; for Number of errors: model group 1.4 ± 0.7; for Latency period: model group 93.8 ± 90.25
Protocol: The mice employed in the present test were purchased from Xipuer-BIKAI Laboratory Animal Co., Ltd., and they were SPF grade ICR mice, 3-4 weeks old, weighing 16-18 g.
Sodium nitrite (NaNO2) was purchased from Sinopharm Chemical Reagent Co., Ltd.; Product No.: 10020018; Specification: analytical grade.
Test article preparation: 100 mg of the compound to be tested was weighed and added to 10 mL of 0.7% CMC-Na to prepare a 10 mg/mL suspension for use.
The laboratory mice were randomly divided into groups (9 or 10 mice per group). The mice in each group were administrated at a dosage of 0.2 mL/10 g body weight by oral gavage once a day for three weeks.
The laboratory animals were administered by gavage for 3 consecutive weeks according to the above administration dosage/specification. Training was started on the last day of administration, and the test was conducted 24 hours later.
The laboratory animals were administered by gavage for three weeks. One hour after the last administration, the animals were trained with YLS-3 TB jumping stand detector. After the training, sodium nitrite (mouse: 120 mg/kg) was injected subcutaneously (in the neck) immediately. The jumping stand test was conducted 24 hours later. The latency period (the time from the start of counting to the first time of jumping off the stand) and the number of errors (the number of electric shock) were recorded.
The YLS-3 TB jumping stand detector were divided into five compartments by transparent boards. The bottom of the compartment was covered with a copper grid and applied with a voltage of 50 V A rubber pad stand with a height of 3.5 cm and a diameter of 3.5 cm was placed in each compartment to serve as a safe area for mice to avoid electric shock. Training of laboratory mice before the formal test: the laboratory mice were placed in the small compartment with a stand to get familiar with the environment for 5 min (the five compartments were connected), and then electrified for stimulation (all the laboratory mice were on the grid at this time), at the voltage of 50 V and current of 1.00 mA. Mice have the habit of jumping from a high place. If they jump, they will be shocked to produce memory. The current was applied for 5 min, which served as the training process.
Testing: the animals were put on the stand in the jumping compartment one by one. The time interval for putting each animal was 5 s. After the first animal was put on the stand, the electricity was applied immediately. The electricity was applied for 6 min. At the end of applying electricity, data were printed, and the latency period (the time from the start of counting to the first time of jumping off the stand) and the number of errors (the number of electric shock during the testing period) were recorded. Due to the different time of putting the animal in, the time difference can be subtracted according to the actual time of putting the animal.

Aβ42 = Aβ42 content in culture supernatant of HEK293APP/sw overexpressing cells (ELISA kit); type: cell-based; conditions: compound 400 μM, 24 hours, adjusted by total protein concentration, blank control 11.08
Protocol: (§1) BCA Protein Assay Kit was purchased from Beyotime, Aβ40 and Aβ42 detection kits were purchased from Wako, and cell culture related reagents were purchased from Gibco.
(§2) HEK293APP/sw overexpressing cells were cultured in DMEM medium containing 10% FBS, 100 μg/mL G418 (Geneticin) and 1×Penicillin-Streptomycin in 48-well plates. A 4 mM compound stock solution (prepared by dissolving the compound in DMEM culture medium) was filtered through a 0.22 μm sterile filter and stored at −20° C. for subsequent use. At 70% cell density, 40 μL of the compound test solution was added to each well to reach a final concentration of 400 μM, and the plate was incubated for 24 hours.
(§3) The supernatant of the culture medium was collected. The BCA reagent was added to a part of the supernatant, after incubating at room temperature for 30 min, the absorbance value (i.e., OD value) of each well was determined by a microplate reader at 570 nm. The total protein concentration was calculated according to a protein standard curve. Meanwhile, the other part of the supernatant (100 μL) was added to a coated 96-well plate and incubated overnight at 4° C., after the solution was removed and the reagents were washed, HRP (horseradish peroxidase)-labeled antibody was added and incubated at 4° C. for 2 hours. After the reagents were removed and washed, a TMB chromogenic solution was added, the plate was incubated at room temperature for 30 min, and then a stop solution was added to stop the reaction. The absorbance value (i.e., OD value) of each well was measured by a microplate reader at 450 nm. The concentrations of Aβ40 and Aβ42 were calculated according to the standard curves of Aβ40 and Aβ42, respectively. In the end, the concentrations of Aβ40 and Aβ42 were adjusted by the total protein concentration, so as to obtain the final concentration.

Aβ40 = Aβ40 content in culture supernatant of HEK293APP/sw overexpressing cells (ELISA kit); type: cell-based; conditions: compound 400 μM, 24 hours, adjusted by total protein concentration, blank control 127.81
Protocol: as §1, §2, §3

Row | Structure (SMILES) | Number of errors [1] | Latency period [1] | The content of Aβ42 (Aβ42) | The content of Aβ40 (Aβ40)
1 | C/C(=C(\CCOP(=O)(O)O)SC(=O)c1ccco1)N(C=O)Cc1cnc(C)nc1N [Compound 9, (Z)—S-(2-(N-((4-amino-2-methylpyrimidin-5-yl)methyl)formamido)-5-(phosphonooxy)pent-2-en-3-yl) furan-2-carbothioate] | 0.6 ± 0.7 | 209.3 ± 110.4 s | 2.94 pmol/L | 42.88 pmol/L
2 | CCC(CC)C(=O)S/C(CCOP(=O)(O)O)=C(/C)N(C=O)Cc1cnc(C)nc1N [Compound 2, (Z)—S-(2-(N-((4-amino-2-methylpyrimidin-5-yl)methyl)formamido)-5-(phosphonooxy)pent-2-en-3-yl) 2-ethylbutanethioate] | 0.6 ± 0.8 | 210.4 ± 117.3 s | 3.34 pmol/L | 37.39 pmol/L
3 | CCCC(CCC)C(=O)S/C(CCOP(=O)(O)O)=C(/C)N(C=O)Cc1cnc(C)nc1N [Compound 1, (Z)—S-(2-(N-((4-amino-2-methylpyrimidin-5-yl)methyl)formamido)-5-(phosphonooxy)pent-2-en-3-yl) 2-propylpentanethioate] | 0.4 ± 0.7 | 228.8 ± 155.9 s | 3.32 pmol/L | 41.18 pmol/L
